According to patent WO2014051359A1, “Pharmaceutical composition comprising neferine as active ingredient for preventing or treating hepatoma” (Pukyong National University, priority 2012, dated 2014):

What was measured:
Hep3B [1] = assay: Western blot of cell cycle-related proteins; format: cell-based; conditions: 15, 20, 25 μM, 24 h
THLE-3 = assay: Cell viability assay (WST-1), THLE-3; format: cell-based; conditions: THLE-3, 5-30 μM, 24 h
[2] = Cell viability assay (WST-1), THLE-3; format: cell-based; conditions: human, thle-3 cells, THLE-3, 30 μM, read-out: survival rate of the cells
Hep3B [3] = assay: Immunofluorescence, p21Waf1/Cip1; format: cell-based; conditions: 15 μM, 12 h; vs untreated
Hep3B [4] = assay: Western blot of LC3B; format: cell-based; conditions: 15, 20, 25 μM, 12 h; vs untreated
Hep3B [5] = assay: Western blot of Bcl-2 family and apoptotic proteins; format: cell-based; conditions: 15, 20, 25 μM, 24 h
Hep3B [6] = assay: Cell viability assay (WST-1), Hep3B; format: cell-based; conditions: 24 h
Hep3B [7] = assay: Immunofluorescence, caspase-12 (endoplasmic reticulum stress); format: cell-based; conditions: 15 μM, 12 h
Sk-Hep1 = assay: Cell viability assay (WST-1), Sk-Hep1; format: cell-based
Hep3B [8] = assay: DAPI assay, nuclear condensation / apoptosis induction; format: cell-based; conditions: 20, 25 μM
[9] = system: Hep3B cells transformed with GFP-LC3B plasmid; assay: Autophagosome formation in GFP-LC3B transformed cells, fluorescence microscopy; format: cell-based; conditions: 20 μM, over time (6, 12, 18, 24)
Hep3B [10] = assay: Cell cycle analysis by flow cytometer (propidium iodide); format: cell-based; conditions: for sub-G1 cell population: 24 h (untreated 1.35%)
Hep3B [11] = assay: Wound-healing assay (cell migration); format: cell-based
Hep3B [12] = assay: Western blot of endoplasmic reticulum chaperone proteins; format: cell-based; conditions: 20 μM, depending on time
HUVECs = assay: Tube formation assay (angiogenesis, in vitro); format: cell-based, human; conditions: for degree of tube formation (total tube length, converted to percent): 18 h (untreated 222)
Hep3B [13] = assay: Immunofluorescence, cleaved caspase-8 and -3; format: cell-based; conditions: 15 μM, 12 h; vs untreated

Question: Which results are given for `COc1ccc(C[C@@H]2c3cc(Oc4cc(C[C@@H]5c6cc(OC)c(OC)cc6CCN5C)ccc4O)c(OC)cc3CCN2C)cc1` [neferine, 4-[[(1R)-6,7-Dimethoxy-2-methyl-3,4-dihydro-1H-isoquinolin-1-yl]methyl]-2-[[(1R)-6-methoxy-1-[(4-methoxyphenyl)methyl]-2-methyl-3,4-dihydro-1H-isoquinolin-7-yl]oxy]phenol]?
Answer: CDK4 protein expression (Hep3B [1]): down regulation; E2F-1 protein expression (Hep3B [1]): down regulation; c-Myc protein expression (Hep3B [1]): down regulation; cyclin D1 protein expression (Hep3B [1]): down regulation; cyclin D3 protein expression (Hep3B [1]): down regulation; p21 Waf1/Cip1 protein expression (Hep3B [1]): expression was increased; phosphorylation of cdc2 (Hep3B [1]): dephosphorylation of cdc2; cytotoxicity (THLE-3): did not show cytotoxicity; viability at 24 h, 30 µM [2]: ~90%; expression level of p21 Waf1/Cip1 protein around the nucleus in the cytoplasm (Hep3B [3]): 두드러지게 증대; expression of LC3B around the membrane (Hep3B [4]): 농도 의존적으로 증가; Bak protein expression (Hep3B [5]): significantly increased; Bax protein expression (Hep3B [5]): slightly increased; Bid protein expression (Hep3B [5]): slightly increased; Bim protein expression (Hep3B [5]): slightly increased; Puma protein expression (Hep3B [5]): significantly increased; caspase-3 protein expression (Hep3B [5]): decrease depending on the treatment concentration; cleaved PARP protein expression (Hep3B [5]): markedly increased; cleaved caspase-6 protein expression (Hep3B [5]): markedly increased; cell suppression (Hep3B [6]; 10 μM or more): marked cell suppression; cell viability (concentration dependence) (Hep3B [6]; 5-30 μM): significant decrease in cell viability depending on the neferrin treatment concentration; viability at 30 µM (Hep3B [6]; Homo sapiens, read-out: cell viability): < 10%; expansion of the endoplasmic reticulum (caspase-12 staining) (Hep3B [7]): 소포체의 확장을 관찰; viability at 30 µM (Sk-Hep1; Homo sapiens, SK-HEP1, 24 h, read-out: survival rate of the cells): ~90%; cytotoxicity (Sk-Hep1; Sk-Hep1, 5-30 μM, 24 h): did not show cytotoxicity; nuclear membrane changes (shrinkage, blebbing) (Hep3B [8]; 6 h after treatment, vs untreated): 세포들의 응축(shrinkage) 및 파열(blebbing)과 같은 핵 막 변화가 나타나는; nuclear condensation (apoptosome formation) (Hep3B [8]; 24 h after treatment): 핵 응축(apoptosome formation)이 관찰되었다; number of autophagosomes in the cytoplasm (GFP-LC3B dots) [9]: 자가포식소체 수가 세포질 내에서 증가; size and number of vacuoles [9]: 시간 의존적으로 더 크고 많이 증가; vacuole formation in the cytoplasm [9]: 소체(vacuole) 형성이 발생; sub-G1 cell population (Hep3B [10]; 15 μM): 4.78%; increase of G1/S phase compared to untreated group (Hep3B [10]; 20 μM, 24 h): approximately 9%; sub-G1 cell population (Hep3B [10]; 20 μM): 16.01%; sub-G1 cell population (concentration dependence) (Hep3B [10]; 15, 20, 25 μM, 24 h): sub-G1 cell population increases in proportion to the neferrin treatment concentration; inhibition at 15 µM (Hep3B [11]; Homo sapiens, Hep3B, 15 μM, 72 h, vs increased migration in untreated group, read-out: reduction of cell coverage area): ~20%; cell migration (Hep3B [11]; images at 12 h intervals): cell migration was suppressed depending on the neferrin treatment concentration; Bip protein expression level (Hep3B [12]): significantly up-regulate; PDI protein expression level (Hep3B [12]): significantly up-regulate; calnexin protein expression level (Hep3B [12]): significantly up-regulate; calpain2 protein expression level (Hep3B [12]): significantly up-regulate; caspase-12 protein expression level (Hep3B [12]): significantly up-regulate; degree of tube formation (total tube length, converted to percent) (HUVECs; 10 μM): 216%; degree of tube formation (total tube length, converted to percent) (HUVECs; 20 μM): 202%; degree of tube formation (total tube length, converted to percent) (HUVECs; 30 μM): 146%; formation of cellular vascular structures (HUVECs; 10, 20, 30 μM, 18 h): suppression of the formation of cellular vascular structures; tube length (px), concentration dependence (HUVECs; 10, 20, 30 μM, 18 h): tube length (px) is reduced depending on the neferrin concentration; cleaved caspase-3 expression (Hep3B [13]): markedly expressed; cleaved caspase-8 expression (Hep3B [13]): markedly expressed
